Reference: US11576897B2, “Therapeutic agent for non-motor symptoms associated with Parkinson's disease” (priority 2017, dated 2023)
Counter-ions that a name gives are not always drawn. Like-named read-outs stand apart in the source and are kept apart here. Marks after values point to notes of the source that are not given here.

How the values were obtained:
human 5-HT2A receptor = human 5-HT2A receptor (Homo sapiens (Human), UniProt P28223); test: biochemical; assay type: binding
[1] = biological target: serotonin 5-HT2A receptor (Rattus norvegicus (Rat), UniProt P14842); test: Rat tryptamine-induced forelimb clonic convulsion model; assay type: in vivo; conditions: orally or subcutaneously 60 minutes before tryptamine 25 mg/kg intravenously, SD-male rats
Procedure: Test 2: Rat Tryptamine-Induced Forelimb Clonic Convulsion Model for Evaluation of In Vivo Serotonin 5-HT2A Receptor Antagonism
Evaluation was conducted in a rodent tryptamine-induced forelimb clonic convulsion model which has been known as one of the methods for assessing the serotonin 5-HT2A receptor antagonism in vivo.
Seven-week-old SD-male rats were used. A dose solution for a test compound was prepared with 0.5% methylcellulose solution or saline for a solvent. A test compound was used in the form of a dose solution obtained by mixing with 0.5% methylcellulose solution to get cloudy (for oral administration) or dissolving in saline (for subcutaneous administration). Tryptamine was used and dissolved in saline as a substance inducing clonic convulsion.
A dose solution of a test compound or a solvent only was administered orally or subcutaneously to rats at the start of the test, and after 60 minutes of the administration, a saline solution containing tryptamine 25 mg/kg was administered intravenously to rats. Rats were transferred to an observation cage right after the administration of tryptamine, and their forelimb clonic convulsion was evaluated for 3 minutes.
The average inhibition ratio of each individual calculated from the following equation was deemed to be the inhibition ratio of each administration group. Inhibition ratio of each individual=(Average score of the solvent-administered group−Score of each individual)/Average score of the solvent-administered group×100
Statistical analysis of the test results was conducted by the following procedures with Stat Preclinica (Takumi Information Technology):
1) Jonckheere-Terpstra test was conducted in the solvent-administered group and test compound-administered group with the forelimb clonic convulsion score as indicator. […] 2) Non-parametric Dunnett's multiple comparison (Joint Ranking)-measured value was conducted between the solvent-administered group and test compound-administered group with the forelimb clonic convulsion score as indicator. […]

[2] = biological target: human serotonin transporter (SERT) (Homo sapiens (Human), UniProt P31645); test: Human serotonin transporter (SERT) binding test
human D2L receptor = human D2L receptor (Homo sapiens (Human), UniProt P14416); test: Dopamine D2L receptor binding test
human 5-HT2C receptor = human 5-HT2C receptor (Homo sapiens (Human), UniProt P28335)
[3] = [3H]-ketanserin, human 5-HT2A receptor-expressed CHO cell membrane, read-out: 5-HT2A receptor binding inhibition constant Ki
[4] = [3H]-citalopram, h-SERT/CHO cell membrane, read-out: h-SERT binding inhibition constant Ki
[5] = read-out: 5-HT2A receptor binding inhibition constant Ki

Sequence of human D2L receptor (P14416 whole entry): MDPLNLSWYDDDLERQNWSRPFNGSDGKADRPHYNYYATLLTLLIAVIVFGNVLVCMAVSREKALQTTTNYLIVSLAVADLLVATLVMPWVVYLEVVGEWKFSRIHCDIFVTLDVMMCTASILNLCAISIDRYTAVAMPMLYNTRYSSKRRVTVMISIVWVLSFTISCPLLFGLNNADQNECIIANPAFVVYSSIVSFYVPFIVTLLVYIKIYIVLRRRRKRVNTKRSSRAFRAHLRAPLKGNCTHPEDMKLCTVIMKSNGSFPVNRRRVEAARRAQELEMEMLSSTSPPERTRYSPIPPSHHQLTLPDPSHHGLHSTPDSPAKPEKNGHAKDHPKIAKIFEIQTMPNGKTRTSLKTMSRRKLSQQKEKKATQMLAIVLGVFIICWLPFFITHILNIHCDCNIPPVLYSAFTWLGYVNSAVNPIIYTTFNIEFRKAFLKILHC
Sequence of human 5-HT2C receptor (P28335 whole entry, looked up): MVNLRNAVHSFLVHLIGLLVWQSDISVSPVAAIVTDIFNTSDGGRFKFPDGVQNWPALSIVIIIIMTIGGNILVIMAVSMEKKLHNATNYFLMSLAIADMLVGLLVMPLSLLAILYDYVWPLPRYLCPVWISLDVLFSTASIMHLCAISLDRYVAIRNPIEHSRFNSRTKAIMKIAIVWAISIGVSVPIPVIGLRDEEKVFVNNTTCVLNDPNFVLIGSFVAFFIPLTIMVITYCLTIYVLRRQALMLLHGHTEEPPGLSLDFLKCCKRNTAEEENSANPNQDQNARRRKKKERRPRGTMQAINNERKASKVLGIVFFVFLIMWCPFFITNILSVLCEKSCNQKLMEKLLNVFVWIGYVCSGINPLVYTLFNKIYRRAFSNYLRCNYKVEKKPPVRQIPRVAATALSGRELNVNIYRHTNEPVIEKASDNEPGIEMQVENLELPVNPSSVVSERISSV

Compound | Ki (human 5-HT2A receptor; [3]) [nM] | Ki [2, 4] [nM] | other results
CNCc1cc(OCc2cc(F)ccc2F)n(CC2CCCC2)n1.Cl [Example 147, 1-{1-(cyclopentylmethyl)-5-[(2,5-difluorobenzyl)oxy]-1H-pyrazol-3-yl}-N-methylmethanamine] | 2.2 | 0.61 | Inhibition ratio ([1]; dose 1 mg/kg): 46%; Inhibition ratio ([1]; dose 3 mg/kg): 46%; Inhibition ratio ([1]; dose 10 mg/kg): 71%**
CNCc1cc(OCc2cc(Cl)ccc2F)n(CCC(C)(C)OC)n1 [Example 275, 1-{5-[(5-chloro-2-fluorobenzyl)oxy]-1-(3-methoxy-3-methylbutyl)-1H-pyrazol-3-yl}-N-methylmethanamine] | 5.9 |  | IC50 (human D2L receptor): > 1000 nM
CNCc1cc(OCc2ccccc2Cl)n(C(C)C2CCCCC2)n1 (stereo not shown) [Example 296, 1-{5-[(2-chlorobenzyl)oxy]-1-(1-cyclohexylethyl)-1H-pyrazol-3-yl}-N-methylmethanamine] | 2.1 |  | Ki (human 5-HT2C receptor): 6.2 nM; Ki [2]: 0.91 nM
CNCc1cc(OCc2ccccc2C)n(C(C)C2CCCCC2)n1 (stereo not shown) [Example 298, 1-{1-(1-cyclohexylethyl)-5-[(2-methylbenzyl)oxy]-1H-pyrazol-3-yl}-N-methylmethanamine] | 3.3 | 0.56 | 
CNCc1cc(OCc2cccc(C)c2)n(C(C)C2CCCCC2)n1 (stereo not shown) [Example 299, 1-{1-(1-cyclohexylethyl)-5-[(3-methylbenzyl)oxy]-1H-pyrazol-3-yl}-N-methylmethanamine] | 5.6 | 1.4 | 
CNCc1cc(OCc2ccc(F)cc2F)n(C(C)C2CCCCC2)n1 (stereo not shown) [Example 300, 1-{1-(1-cyclohexylethyl)-5-[(2,4-difluorobenzyl)oxy]-1H-pyrazol-3-yl}-N-methylmethanamine] | 0.57 | 1.8 | 
CNCc1cc(OCc2ccc(F)cc2Cl)n(C(C)C2CCCCC2)n1 (stereo not shown) [Example 301, 1-{5-[(2-chloro-4-fluorobenzyl)oxy]-1-(1-cyclohexylethyl)-1H-pyrazol-3-yl}-N-methylmethanamine] | 0.88 | 1.3 | 
CNCc1cc(OCc2ccc(F)cc2C)n(C(C)C2CCCCC2)n1 (stereo not shown) [Example 302, 1-{1-(1-cyclohexylethyl)-5-[(4-fluoro-2-methylbenzyl)oxy]-1H-pyrazol-3-yl}-N-methylmethanamine] | 0.94 | 1.4 | 
CNCc1cc(OCc2cc(F)ccc2F)n(C(C)C2CCCCC2)n1 (stereo not shown) [Example 303, 1-{1-(1-cyclohexylethyl)-5-[(2,5-difluorobenzyl)oxy]-1H-pyrazol-3-yl}-N-methylmethanamine] | 1.8 | 0.46 | 
CNCc1cc(OCc2cc(Cl)ccc2F)n(C(C)C2CCCCC2)n1 (stereo not shown) [Example 304, 1-{5-[(5-chloro-2-fluorobenzyl)oxy]-1-(1-cyclohexylethyl)-1H-pyrazol-3-yl}-N-methylmethanamine] |  | 1.3 | Ki (human 5-HT2A receptor; [5]): 1.4 nM
CNCc1cc(OCc2cc(C)ccc2F)n(C(C)C2CCCCC2)n1 (stereo not shown) [Example 305, 1-{1-(1-cyclohexylethyl)-5-[(2-fluoro-5-methylbenzyl)oxy]-1H-pyrazol-3-yl}-N-methylmethanamine] |  | 2 | Ki (human 5-HT2A receptor; [5]): 2.5 nM
CNCc1cc(OCc2ccccc2)n(CC2(C)CCCCC2)n1 [Example 331, 1-{5-(benzyloxy)-1-[(1-methylcyclohexyl)methyl]-1H-pyrazol-3-yl}-N-methylmethanamine] | 2.8 | 1.3 | 
CNCc1nn(CC2CCCCC2)c(OCc2cc(F)ccc2F)c1F [Example 351] | 15 | 0.98 | 
[2H]C([2H])(NC)c1cc(OCc2ccccc2)n(CC2CCCCC2)n1 [Example 492, 1-[5-(Benzyloxy)-1-(cyclohexylmethyl)-1H-pyrazol-3-yl]-N-methyl(^2H2)methanamine] |  |  | Ki (human 5-HT2A receptor): 2.9 nM; Ki (human 5-HT2C receptor): 6.8 nM; Ki [2]: 1.4 nM
[2H]C([2H])([2H])NC([2H])([2H])c1cc(OCc2ccccc2)n(CC2CCCCC2)n1 [Example 493, 1-[5-(Benzyloxy)-1-(cyclohexylmethyl)-1H-pyrazol-3-yl]-N-(^2H3)methyl(^2H2) methanamine] |  |  | Ki (human 5-HT2A receptor): 2.3 nM; Ki (human 5-HT2C receptor): 7.2 nM; Ki [2]: 1.1 nM
[2H]C([2H])([2H])NCc1cc(OCc2ccccc2)n(CC2CCCCC2)n1 [Example 494, 1-[5-(Benzyloxy)-1-(cyclohexylmethyl)-1H-pyrazol-3-yl]-N-(^2H3)methylmethanamine] |  |  | Ki (human 5-HT2A receptor): 3.6 nM; Ki (human 5-HT2C receptor): 7.1 nM; Ki [2]: 1.1 nM
[2H]C([2H])(Oc1cc(CNC)nn1CC1CCCC1)c1cc(F)ccc1F [Example 495, 1-[1-(Cyclopentylmethyl)-5-{[(2,5-difluorophenyl) (^2H2)methyl]oxy}-1H-pyrazol-3-yl]-N-methylmethanamine Hydrochloride] | 2 |  | Ki (human 5-HT2C receptor): 2.5 nM; Ki [2]: 0.24 nM
Cl.[2H]C([2H])(Oc1cc(CNC)nn1CC1CCCC1)c1cc(Cl)ccc1F [Example 496, 1-[5-{[(5-Chloro-2-fluorophenyl) (^2H2)methyl]oxy}-1-(cyclopentylmethyl)-1H-pyrazol-3-yl]-N-methylmethanamine Hydrochloride] |  |  | Ki (human 5-HT2A receptor): 1.7 nM; Ki (human 5-HT2C receptor): 1.1 nM; Ki [2]: 2 nM
CNCc1cc(OCc2cc(F)ccc2F)n(CCC(C)(C)C)n1 [Example 500, 1-{5-[(2,5-Difluorobenzyl)oxy]-1-(3,3-dimethylbutyl)-1H-pyrazol-3-yl}-N-methylmethanamine Monophosphate] |  |  | IC50 (human D2L receptor): > 1000 nM
CNCc1cc(OCc2cc(F)ccc2F)n(CC(C)(C)C)n1 [Example 504, 1-{5-[(2,5-Difluorobenzyl)oxy]-1-(2,2-dimethylpropyl)-1H-pyrazol-3-yl}-N-methylmethanamine monophosphate dihydrate] |  |  | IC50 (human D2L receptor): > 1000 nM
CNCc1cc(OCc2cccc(Cl)c2)n(CC2OC3CCC2CC3)n1 (stereo not shown) [Example 508, 1-{5-[(3-chlorobenzyl)oxy]-1-(2-oxabicyclo[2.2.2]oct-3-ylmethyl)-1H-pyrazol-3-yl}-N-methylmethanamine] | 9.4 | 8.1 | 
